Laboratory results: patent publication US9889081B2, “Aldehyde dehydrogenase inhibitors as novel depigmenting agents” (The Regents of the University of California, priority 2008, dated 2018)

What was measured:
MNT-1 cells = assay: Drug treatment, pigmentation in MNT-1 cells; format: cell-based, human; conditions: doses equivalent to those required for inhibition of Aldh activity in culture
Excerpt: For further analyses, we focused on those novel pigmentation genes that impacted tyrosinase expression in all three genetic backgrounds. Among these were two isoforms of aldehyde dehydrogenase, Aldh1 and Aldh9, well characterized enzymes that regulate ethanol detoxification (Edenberg 2007). A number of chemical inhibitors of these enzymes have been identified (DeMaster et al. 1998), and several of these agents are clinically utilized to induce alcohol intolerance during detoxification interventions; presenting an opportunity for pharmacological validation of the contribution of Aldh activity to melanocyte pigmentation.
1×10^4 MNT-1 cells were plated in a 96 well microtiter plate. 24 hours after plating, cells were incubated with either vehicle, hydroquinone Angeli's salt, or cyanamide. 48 hours after drug treatment, cell lysates were prepared and subjected to immunoblotting with a tyrosinase and ERK antibody. Similar protocols were utilized in primary melanocytes. Melanocytes were plated in 96 well microtiter plate in the presence of drug or vehicle. 24 hours after drug treatment, melanocytes were treated with UV. Cell lysates were prepared 24 hours after UV treatment and subjected to immunoblotting. […] Cells were incubated for an additional 7 days, with one media change on day 4, prior to collection of absorbance and viability values. […]

melanoma cells = conditions: cited from earlier work
tyrosinase [1] = assay: UV-induced tyrosinase expression in primary melanocytes, immunoblot; format: cell-based, human; conditions: cyanamide 100 uM, UV-B 24 hours post treatment
Method: (§1) FIG. 2A-G. Novel, pharmaceutically-tractable melanogenesis gene networks converge on tyrosinase expression. a, 4 days post transfection with the indicated siRNAs, MNT-1 whole cell lysates were prepared and analyzed by immunoblot for the indicated proteins. A non-targeting siRNA was used as a transfection control (Control). ERK1/2 is shown as a loading control. b, Those siRNAs that inhibited tryosinase accumulation were examined for consequences on Tyrosinase and MITF gene expression by quantitative rt-PCR. c, The indicated siRNAs, targeting novel pigmentation genes identified in the MNT-1 screen, were tested for consequences on tyrosinase protein accumulation in darkly pigmented primary human melanocyte cultures 6 days post transfection as in a. d, The indicated siRNAs, targeting novel pigmentation genes identified in the MNT-1 screen, were tested for consequences on tyrosinase protein accumulation in moderately pigmented primary human melanocyte cultures 6 days post transfection as in a. e, Pharmacological inhibition of Aldh activity impacts tyrosinase protein accumulation. […] Tyrosinase and ERK1/2 levels were assessed by immunoblot. […]
(§2) 1×10^4 MNT-1 cells were plated in a 96 well microtiter plate. […] Cells were incubated for an additional 7 days, with one media change on day 4, prior to collection of absorbance and viability values. […]

tyrosinase [2] = assay: Drug treatment, tyrosinase immunoblot in MNT-1 cells; format: cell-based, human; conditions: 5 uM, doses equivalent to those required for inhibition of Aldh activity in culture
Method: as §1, §2

[3] = test system: primary human melanocytes; assay: Pigment production in darkly pigmented primary human melanocytes, 7 days with drug; format: cell-based; conditions: seven days
Method: as §1, §2

[4] = test system: primary human melanocytes; conditions: Hall and Orlow 2005; cited from earlier work
tyrosinase [5] = assay: Bafilomycin rescue of tyrosinase accumulation after siRNA depletion, immunoblot; format: cell-based, human; conditions: MNT-1 cells, 25 nM bafilomycin
Method: FIG. 2A-G. Novel, pharmaceutically-tractable melanogenesis gene networks converge on tyrosinase expression. a, 4 days post transfection with the indicated siRNAs, MNT-1 whole cell lysates were prepared and analyzed by immunoblot for the indicated proteins. A non-targeting siRNA was used as a transfection control (Control). ERK1/2 is shown as a loading control. b, Those siRNAs that inhibited tryosinase accumulation were examined for consequences on Tyrosinase and MITF gene expression by quantitative rt-PCR. c, The indicated siRNAs, targeting novel pigmentation genes identified in the MNT-1 screen, were tested for consequences on tyrosinase protein accumulation in darkly pigmented primary human melanocyte cultures 6 days post transfection as in a. d, The indicated siRNAs, targeting novel pigmentation genes identified in the MNT-1 screen, were tested for consequences on tyrosinase protein accumulation in moderately pigmented primary human melanocyte cultures 6 days post transfection as in a. e, Pharmacological inhibition of Aldh activity impacts tyrosinase protein accumulation. MNT-1 cells (left panel) and primary melanomcyte cultures (right panels) were exposed to 5 uM Aldh inhibitors (cyanamide or Angeli's salt) or the tyrosinase inhibitor hydroxyquinone(Kim and Uyama 2005) for 72 hours as indicated. 24 hours post treatment, cultures were exposed to UV-B at the doses indicated. Tyrosinase and ERK1/2 levels were assessed by immunoblot. […] Subsequently, cells were lysed in Cell Titer Glo and the luminescence and absorbance values were used to calculate inhibition of pigmentation as in FIG. 1a. g, MNT-1 cells transfected with the indicated siRNAs as in a were incubated in the presence and absence of bafilomycin A2 for 24 hours prior to lyses and analyses of tyrosinase protein accumulation. […]
as §2

[6] = 24 hour inhibition of lysosome acidification

Row | Compound | pigmentation (MNT-1 cells) | toxicity (melanoma cells) | UV-induced tyrosinase expression (tyrosinase [1]) | tyrosinase protein accumulation (tyrosinase [2]) | further results
1 | N#CN [cyanamide] | inhibited pigmentation | non-toxic | impaired UV-induced tyrosinase expression | inhibited | melanogenesis [3]: impair melanogenesis
2 | CCN(CC)C(=S)SSC(=S)N(CC)CC [Disulfiram] | – | toxic to melanoma cells | – | – | –
3 | NC(=S)Nc1ccccc1 [PTU, phenylthiourea] | – | – | – | – | in vitro pigment inhibition [4]: most potent currently known in vitro pigment inhibitor
4 | CO/C1=C\C(C)=C\[C@@H](C)[C@@H](O)[C@@H](C)C/C(C)=C/C=C/[C@H](OC)[C@@H]([C@@H](C)[C@@H](O)[C@H](C)[C@@]2(O)C[C@@H](O)[C@H](C)[C@@H](C(C)C)O2)OC1=O [bafilomycin, bafilomycin A] | – | – | – | – | tyrosinase accumulation upon depletion of Msra (tyrosinase [5]): did not restore tyrosinase accumulation; tyrosinase accumulation upon depletion of Rab4a (tyrosinase [5]; [6]): rescued tyrosinase accumulation; tyrosinase accumulation upon depletion of Zdhhc9 (tyrosinase [5]; [6]): rescued tyrosinase accumulation
5 | [Na+].[Na+].[O-][N+]([O-])=NO [Angeli's salt] | inhibited pigmentation | non-toxic | impaired UV-induced tyrosinase expression | inhibited | –
